{
  "source": "patent US20230256217A1",
  "about": "“OZONE GENERATION APPARATUSES AND METHODS OF TREATING WOUNDS” (priority 2020, published 2023)",
  "key": {"S. epidermidis": {"system": "S. epidermidis", "details": "cited from earlier work"}, "P. aeruginosa [1]": {"system": "P. aeruginosa", "assay": "Adjunct ozone and antibiotic therapy antibacterial test", "format": "cell-based", "details": "ozone 100 ppm (4 mg/hr) for six hours; antibiotic 20 μg/mL; 37° C.", "procedure": "To test the antibacterial effects of ozone in combination with antibiotics, a P. aeruginosa culture was inoculated in a solution of […] soy broth (TSB) and incubated overnight. A sample of the mature culture was diluted in new TSB at 1:50. The new culture media was then pipetted into test wells in triplicate at 1:10 with either linezolid or vancomycin solution in phosphate buffered saline (PBS) at 200 μg/mL. […] The bacterial samples were subject to the combination treatment of 100 ppm (4 mg/hr) ozone with vancomycin at 20 μg/mL and linezolid at 20 μg/mL. During testing, the test samples were kept at 37° C. At 2, 4, and six hours, 20 μL samples were withdrawn from the designated set of wells and plated on TSB agar plates. Bacterial colonies were counted after being incubated overnight at 37°. Experimental adjunct therapy samples were compared against treatment of only ozone, and control cultures exposed to antibiotics without the ozone. Because both antibiotics in the test (linezolid and vancomycin) are designed to be effective against G+ve bacteria, it was expected that neither will show any effect against the bacterial strain unless combined with ozone. Additionally, treatment was administered to in vitro colonies of P. aeruginosa under ideal conditions for bacterial growth."}, "P. aeruginosa [2]": {"system": "P. aeruginosa", "assay": "Secondary study: pristine vs biofluid-preconditioned patch, bacteria spotted on filter paper", "format": "cell-based", "details": "ozone for six hours", "procedure": "A secondary study was also conducted on P. aeruginosa to verify that prolonged contact to a wound environment would not change antimicrobial properties. In each case, 100 μL of P. aeruginosa was diluted into 1 mL of PBS and spotted onto filter paper. Each experimental trial was exposed to the ozone for six hours. The first test was conducted through an untreated patch 10, while the second was conducted using a patch 10 that had been preconditioned by resting on a damp sponge filled with mammalian cell culture media overnight. FIGS. 9A and 9B report the results of the tests when compared to the controls, which were prepared in the same way, but exposed to no ozone treatment."}, "human keratinocyte cells": {"system": "human keratinocyte cells", "assay": "Biocompatibility of adjunct therapy", "format": "cell-based", "details": "six hour, 100 ppm ozone; nanofiber solution with or without antibiotic", "procedure": "By studying the biocompatibility, it was determined that the treatment system was both effective and safe to use. To test this, human keratinocyte cells were either exposed to the ozone therapy (with or without antibiotics) or left as a control. In each case, cell samples were exposed to test inhibitory concentration of the nanofiber solution containing either linezolid, vancomycin, or no antibiotic. Tests were conducted under the same six hour and 100 ppm ozone parameters as the antibacterial studies."}, "P. aeruginosa ATCC 15442": {"system": "P. aeruginosa ATCC 15442", "assay": "Antibacterial test of ozone applied by the patch", "format": "cell-based", "details": "initial 5 log CFU/mL concentration; within six hours of treatment", "procedure": "(§1) The antibacterial properties of the patch 10 were assessed by exposing multiple strains of antibiotic resistant bacteria (both Gram-negative and Gram-positive) to the ozone applied by the patch 10 for six hours, and measuring the living concentration every one to two hours. Experiments using two common strains of antibiotic resistant bacteria common in skin infections, S. epidermidis NRS101 and P. aeruginosa ATCC 15442, indicated positive results. […] FIGS. 8A through 8C show bacteria stain images of the samples before and after treatment, and a control. At first, all of the bacteria were stained green, and then any dead bacteria were re-stained with the red. These images show qualitatively that the bacteria before the treatment are living, and afterward are mostly dead. […] Additionally, results for the Gram-negative bacteria, P. aeruginosa, indicated even better results. […] FIGS. 8D, 8E, and 8F show similar stain images for P. aeruginosa."}, "S. epidermidis NRS101": {"system": "S. epidermidis NRS101", "assay": "Antibacterial test of ozone applied by the patch", "format": "cell-based", "details": "six hours of ozone exposure through the patch", "procedure": "as §1"}, "[3]": {"system": "normal mammary fibroblasts HMS-32 cells", "assay": "Cytotoxicity of ozone treatment on human cells", "format": "cell-based", "procedure": "FIGS. 10A through 10D include images of normal mammary fibroblasts HMS-32 cells initial (FIG. 10A), after six hours of ozone treatment (FIG. 10B), 24 hours after ozone treatment (FIG. 10C), and 48 hours after ozone treatment (FIG. 10D). Scale bar 10 micrometers. FIG. 10E contains a graph showing percentage of apoptotic cells at each time in a control group and an experimental group. Data was collected from triplicate samples, with error bars indicating standard deviation.\nThe possibility for the use of ozone to treat antibiotic resistant infections is also dependent on the apparatus not damaging the normal skin cells. Cytotoxic experimentation was conducted to determine how the ozone treatment would interact with human skin cells (FIG. 10A through 10D). […] Ozone treatment has been used to increase the healing process for chronic wounds, so there is good reason to believe a high level of biocompatibility exists. […] Similar to the stain imaging done for the antimicrobial results, FIGS. 10A through 10D are stain images that show the health of the cells at each time point. In each cell, F-actin was stained green, and the nuclei were stained blue. These images support finding minimal cytotoxicity because there is no noticeable difference in the images over time. […]"}, "P. aeruginosa [4]": {"system": "P. aeruginosa", "details": "cited from earlier work"}},
  "data": [
    {"compound": "CN[C@H](CC(C)C)C(=O)N[C@H]1C(=O)N[C@@H](CC(N)=O)C(=O)N[C@H]2C(=O)N[C@H]3C(=O)N[C@H](C(=O)N[C@H](C(=O)O)c4cc(O)cc(O)c4-c4cc3ccc4O)[C@H](O)c3ccc(c(Cl)c3)Oc3cc2cc(c3O[C@@H]2O[C@H](CO)[C@@H](O)[C@H](O)[C@H]2O[C@H]2C[C@](C)(N)[C@H](O)[C@H](C)O2)Oc2ccc(cc2Cl)[C@H]1O", "note": "[vancomycin]", "values": [
      {"measurement": "known effectiveness / resistance", "setting": "S. epidermidis", "value": "known to be effective"},
      {"measurement": "bacterial population (CFU/mL) compared to initial", "setting": "P. aeruginosa [1]", "value": "no impact on bacteria growth"}
    ]},
    {"compound": "O=[O+][O-]", "note": "[ozone]", "values": [
      {"measurement": "elimination of bacteria", "setting": "P. aeruginosa [2]; patch preconditioned overnight on sponge with mammalian cell culture media", "value": "complete elimination of bacteria"},
      {"measurement": "elimination of bacteria", "setting": "P. aeruginosa [2]; untreated (pristine) patch", "value": "complete elimination of bacteria"},
      {"measurement": "percent of cell viability", "setting": "human keratinocyte cells", "value": "did not significantly change"},
      {"measurement": "eradication of bacteria", "setting": "P. aeruginosa ATCC 15442", "value": "completely eradicate"},
      {"measurement": "log10 reduction CFU/mL", "setting": "S. epidermidis NRS101", "value": 0.8, "unit": "log10 reduction CFU/mL"},
      {"measurement": "reduction from the starting inoculum", "setting": "S. epidermidis NRS101", "value": "greater than 70%"},
      {"measurement": "increase in cell apoptosis", "setting": "[3]; after six, 24 and 48 hours", "value": "no significant increase in cell apaptosis"},
      {"measurement": "increase in cell apoptosis", "setting": "[3]; over 48 hours after six hours of ozone exposure", "value": 6.5, "unit": "%"}
    ]},
    {"compound": "CC(=O)NC[C@H]1CN(c2ccc(N3CCOCC3)c(F)c2)C(=O)O1", "note": "[linezolid]", "values": [
      {"measurement": "bacterial population (CFU/mL) compared to initial", "setting": "P. aeruginosa [1]", "value": "did not inhibit the growth of the bacteria at all"}
    ]},
    {"compound": "colistin", "values": [
      {"measurement": "known effectiveness / resistance", "setting": "P. aeruginosa [4]", "value": "known to be effective"}
    ]},
    {"compound": "C[C@@H](O)[C@H]1C(=O)N2C(C(=O)O)=C(S[C@@H]3CN[C@H](C(=O)N(C)C)C3)[C@H](C)[C@H]12", "note": "[meropenem]", "values": [
      {"measurement": "known effectiveness / resistance", "setting": "P. aeruginosa [4]", "value": "known to be effective"}
    ]},
    {"compound": "NC[C@H]1O[C@H](O[C@H]2[C@H](O)[C@@H](O[C@H]3O[C@H](CO)[C@@H](O)[C@H](N)[C@H]3O)[C@H](N)C[C@@H]2N)[C@H](N)C[C@@H]1O", "note": "[tobramycin]", "values": [
      {"measurement": "known effectiveness / resistance", "setting": "P. aeruginosa [4]", "value": "resisted"}
    ]},
    {"compound": "Cc1onc(-c2ccccc2)c1C(=O)N[C@@H]1C(=O)N2[C@@H]1SC(C)(C)[C@@H]2C(=O)O", "note": "[oxacillin]", "values": [
      {"measurement": "known effectiveness / resistance", "setting": "S. epidermidis", "value": "resisted"}
    ]},
    {"compound": "penicillin", "values": [
      {"measurement": "known effectiveness / resistance", "setting": "P. aeruginosa [4]", "value": "resisted"},
      {"measurement": "known effectiveness / resistance", "setting": "S. epidermidis", "value": "resisted"}
    ]}
  ]
}
